Reference: US10590413B2, “Chiral control” (WAVE LIFE SCIENCES LTD., priority 2012, dated 2020)
Where two headings read alike, the source gives them in different places.

Columns and labels:
human PBMC = conditions: cited from earlier work
[1] = system: Murine IL-6 production and B cell activation; conditions: cited from earlier work; for IL-6 (pg/ml) CH12.LX: CH12.LX cells; for IL-6 (pg/ml) SPLENIC B CELL: splenic B cells
[2] = oligo 1619 alone or with a second "bad" CpG oligonucleotide added; cited from earlier work
[3] = system: ODN-induced cytokine expression; conditions: ELISA on supernatants from DBA/2 spleen cells, 2 × 10^7 cells/ml, 24 hr, ODN at 30 μg/ml; cited from earlier work
NK activity = conditions: cited from earlier work
B cell proliferation = B cell proliferation induced by a stimulatory CpG motif; oligonucleotide added alone or with inhibitory ODN 1735; cited from earlier work
[4] = system: human B cell proliferation; conditions: human spleen cells or PBNC, ODN at 6 μml, 4-7 days, 3H thymidine, cited from earlier work
NK Lytic Activity = conditions: cited from earlier work
[5] = system: CpG-induced cytokine secretion; conditions: RALB/c spleen cells, 24 hr, ELISA, cited from earlier work; for IL-12 secretion: 2 × 10^7 cells/ml, indicated ODN alone; for CpG-S-induced IL-12 secretion: IL-12 secretion induced by addition of CpG ODN 1619 at 30 μg/ml
NK LU = conditions: PBMC, phosphorothioate ODN, cited from earlier work
[6] = system: TNF-α and IL-12 expression; conditions: cell line 3774, no activator, inhibitor at head concentration: Bafilomycin 250 nM, Chloroquine 2.5 μg/ml, Monensin 10 μM, cited from earlier work; for TNF-α, activator: Medium (inhibitor alone): NAC 50 mM, TPCK 50 μM, Gliotoxin 0.1 μg/ml, Bisgliotoxin 0.1 μg/ml, medium alone 37
[7] = system: Mouse Apolipoprotein B/GAPDH mRNA; assay: Apolipoprotein B mRNA assay in transfected mouse primary hepatocytes (Example 88); assay type: cell-based
Description: C57BL6 male mice, 7 weeks of age were used to extract and plate mouse primary hepatocytes in 96-well plates (without overlay) (Celsis/Bioreclamation IVT). Transfection of primary hepatocytes was carried out with lipofectin (Life Technologies, cat. No. 18292-037) using the manufacturer's protocol, using 0.5 ul of Lipofectin per 96-plate well. Twelve, 1:3 siRNA duplex dilutions were created starting at 6 uM. 10 ul of 10× oligo was then lipoplexed with a prepared mixture of 9.5 ul of In vitro Gro HI Medium (Celsis Cat. Z99009) serum-free medium and 0.5 ul of Lipofectin per well. After a 10-15 minute incubation, 20 ul of lipoplexed oligo was added to primary hepatocytes in 80 ul of In vitro Gro HI Medium to bring the final volume to 100 ul per well. 24 hours after transfection, cells were lysed.
Total mRNA was purified from cell lysates using MagMAX™-96 Total RNA Isolation Kit (Life Technologies, AM1830); 15 ul of cDNA was synthesized with High Capacity cDNA Reverse Transcription Kit with RNase Inhibitor (Life Technologies, 4374967). Gene expression was evaluated by Real-Time PCR on a Lightcycler 480 (Roche) using a Probes Master Mix (Roche, 04 707 494 001) according to manufacturer's protocol using the following primers: Mouse apolipoprotein B primers:
[Template: (GenBank Accession Number M35186)]
The delta delta Ct method was used to calculate values. […]

(Ap)9A = conditions: duplex with (Ap)9A; cited from earlier work
CD86 = conditions: US 6,218,371 Table 3; cited from earlier work
CD40 = conditions: US 6,218,371 Table 3; cited from earlier work
T cell proliferation = conditions: US 6,218,371 Table 3; cited from earlier work
[8] = ODN 12 μg/ml, 24 hr, 10% autologous serum, level above wells with no ODN, ELISA
[9] = unstimulated control ≤10 pg/ml, US 6,239,116 Table 2

## 1619 (DNA TCCATGTCGTTCCTGATGCT; chemistry not given here) [Oligonucleotide 1619]
Human PBMC; ODN 12 μg/ml, 4 hr, 10% autologous serum, level above wells with no ODN, ELISA
  TNF-α: 450 pg/mL
Human PBMC; [8]
  GM-CSF: 80 pg/mL
  IFN-γ: 200 pg/mL
  IL-6: 275 pg/mL
  IL-12: 450 pg/mL
Human PBMC
  GM-CSF: 80
  IFN-γ: 200
  IL-6: 275
  IL-12: >500
  TNF-α: 450
[1]
  IL-6 (pg/ml) CH12.LX: 1555 ± 304 pg/mL
  IL-6 (pg/ml) SPLENIC B CELL: 2908 ± 129 pg/mL
[1]; [9]
  IL-6 (pg/ml) CH12.LX: 1555 ± 304 pg/mL
  IL-6 (pg/ml) SPLENIC B CELL: 2908 ± 129 pg/mL
[1]; cells stimulated with 20 μM CpG O-ODN, mean ± SD of triplicates
  SI (stimulation index, [3H] uridine uptake, fold increase from unstimulated control): 12.5 ± 1.0
[1]; fold increase from unstimulated control, 20 μM CpG O-ODN, mean ± SD of triplicates
  SI (stimulation index, [3H] uridine uptake): 12.5 ± 1.0
[1]; measured by ELISA, unstimulated culture 547 ± 82 ng/ml
  IgM: 8243 ± 698 ng/mL
[2]
  IL-12 in pg/ml: 6 pg/mL
[3]
  ODN-induced cytokine expression IFN-γ: 4628 pg/mL
  ODN-induced cytokine expression IL-6: 1405 pg/mL
  ODN-induced cytokine expression IL-12: 3130 pg/mL
NK activity; Expt. 3, None = 0.00
  LU/10^6, Mouse Cells: 3.35 LU/10^6
NK activity; Table 3 of U.S. Pat. No. 6,214,806
  NK activity LU/10^5 Mouse Cells: 3.35 LU/10^5
NK activity; Table 9 of U.S. Pat. No. 6,207,646
  NK activity LU/10^6 Mouse Cells: 3.35 LU/10^6

## 1720 (DNA 1720 (TCCATGAGCTTCCTGATGCT); as printed in the source, key not given here) [Oligonucleotide 1720]
B cell proliferation
  cpm (B cell proliferation): 601 cpm

## 1841 (DNA TCCATAGCGTTCCTAGCGTT; chemistry not given here) [Oligonucleotide 1841]
[4]; US 6,214,806 Table 6
  Stimulation Index, expt. 1: 3
[4]; US 6,239,116 Table 12
  Stimulation Index, expt. 1: 3
NK Lytic Activity; human PBMC cultured with ODN 6 μg/ml for 24 hr, lysis of 51Cr-labeled K562 cells
  NK Lytic Activity (LU): 1.45 LU
NK Lytic Activity; human PBMC, ODN 6 μg/ml for 24 hr, lysis of Cr-labeled K562 cells, cells alone 0.01
  LU (NK lytic activity): 1.45 LU

## 1895 (DNA GCGCGCGCGCGCGCGCGCGC; chemistry not given here) [Oligonucleotide 1895]
[5]
  IL-12 secretion: 123 pg/mL
  CpG-S-induced IL-12 secretion: 2719 pg/mL

## 1896 (DNA CCGGCCGGCCGGCCGGCCGG; chemistry not given here) [Oligonucleotide 1896]
[5]
  IL-12 secretion: 292 pg/mL
  CpG-S-induced IL-12 secretion: 2740 pg/mL

## 1952 (DNA TCCATGTCGTTCCGCGCGCG; chemistry not given here) [Oligonucleotide 1952]
[3]
  ODN-induced cytokine expression IFN-γ: 2135 pg/mL
  ODN-induced cytokine expression IL-6: 559 pg/mL
  ODN-induced cytokine expression IL-12: 1615 pg/mL

## 1953 (DNA TCCATGTCGTTCCTGCCGCT; chemistry not given here) [Oligonucleotide 1953]
[3]
  ODN-induced cytokine expression IFN-γ: 2000 pg/mL
  ODN-induced cytokine expression IL-6: 557 pg/mL
  ODN-induced cytokine expression IL-12: 1854 pg/mL

## 1959 (DNA GCGGCGGGCGGCGCGCGCCC; chemistry not given here) [Oligonucleotide 1959]
[5]
  IL-12 secretion: 270 pg/mL
  CpG-S-induced IL-12 secretion: 2539 pg/mL

## 1963 (DNA TCCTTGTCGTTCCTGTCGTT; DNA, all phosphorothioate, methylation of C not given here) [Oligonucleotide 1963]
[4]; US 6,214,806 Table 6
  Stimulation Index, expt. 1: 3
[4]; US 6,239,116 Table 12
  Stimulation Index, expt. 1: 3
NK LU; expt. 1 (one donor), US 6,214,806 Table 5
  NK LU, expt. 1: 3.42 LU
NK LU; expt. 1, cells alone 0.00, US 6,239,116 Table 11
  NK LU, expt. 1: 3.42 LU

## 2037 (DNA TCCATGCCGTTCCTGCCGTT; chemistry not given here) [Oligonucleotide 2037]
[5]
  IL-12 secretion: 423 pg/mL
  CpG-S-induced IL-12 secretion: 2847 pg/mL

## Cc1ccc(S(=O)(=O)N[C@@H](Cc2ccccc2)C(=O)CCl)cc1 [TPCK]
[6]
  TNF-α, activator: Medium (inhibitor alone): 24 pg/mL

## (All(Rp))-GsTs5mCs5mCs5mCsTsGsAsAsGsAsTsGsTs5mCsAsAsTsGs5mC (DNA GTCCCTGAAGATGTCAATGC; chemistry not fully specified) [ONT-82]
[7]; relative IC50, bottom 0 and top 100 constrained, read-out: IC50 for Suppression of Mouse Apolipoprotein B/GAPDH mRNA Levels
  IC50: 64.4 nM
[7]; suppression of ApoB/GAPDH mRNA, bottom 0 and top 100 constrained
  Hill Slope: −0.3

## (Rp)-(Ups)9U
(Ap)9A
  Tm value of duplex compared with natural-(Up)9U/(Ap)9A: higher Tm value

## (Sp)-(Ups)9U
(Ap)9A
  Tm value of duplex compared with natural-(Up)9U/(Ap)9A: did not form a duplex

## Bafilomycin
[6]
  TNF-α, activator: Medium (inhibitor alone): 46 pg/mL
[6]; medium alone 147
  IL-12, activator: Medium (inhibitor alone): 102 pg/mL

## GM-CSF
CD86
  CD86 (5 Exp): 1.9
CD40
  CD40 (4 Exp.): 2.5
T cell proliferation
  T cell proliferation: 13.3
